Measurements: patent US4230712A, “7-Methyl-8β-lower alkyl or 7-methyl-8-lower alkyl B/C cis or trans morphinan-6-one compounds and therapeutic method of treating pain employing them” (Miles Laboratories, Inc., priority 1978, dated 1980)
Entries after “also recorded” stand apart in the source; their conditions may differ. Counter-ions that a name gives are not always drawn.

Experiments:
rats = experiment: narcotic antagonist activity, modified rat tail flick test against morphine; format: in vivo, male albino Wistar rats; design: AD50: unit not given here; conditions: for narcotic antagonist activity / analgesic (agonist)/narcotic antagonist activity profile: in words; for AD50: rat tail flick, dose inhibiting the morphine (ED80 dose s.c.) effect by 50%, IA @ dose = inactive at that dose; for narcotic antagonist potency relative to TR-5222: more potent than TR-5222 by a factor
Method: (B) Narcotic antagonist activity in rats (modified rat tail flick test).
TEST B. EVALUATION OF NARCOTIC ANTAGONIST ACTIVITY
The narcotic antagonist effects of test compounds were determined by a modification of the rat tail flick procedure of Harris and Pierson (J. Pharmacol. Exp. Ther. 143:141 [1964]).
Male albino Wistar rats (100-120 g) were used for this study. A rat's tail is so placed so as to cover a photocell. Heat is applied by a lamp in a reflector with a timer being connected to the lamp and photocell so that the timer goes on when the light is turned on and is turned off when the photocell is uncovered. A rheostat, incorporated into a heating lamp is used to adjust the intensity of the light falling on the tail of the rat such that the rat's control reaction time is from two to four seconds. Animals with a control reaction time outside this range are rejected. The rheostat adjustment is made only if a significant proportion (more than 2 out of every 10 rats) of the reaction times are outside the range of two to four seconds. Groups of five rats were used each time, and two control times were determined at 60 and 30 minutes prior to subcutaneous injection of the drug.
Thirty minutes after the last control run the test drug was given intraperitoneally. This was followed ten minutes later by an ED80 dose of morphine subcutaneously. The animals were retested at 20 minutes after the morphine injection. Control animals were given vehicle and morphine only. The data were calculated as follows: [formula]
The data were plotted on log-probit paper and AD50 values, i.e., the dose required to inhibit the morphine effect by 50% within 95% confidence limits, were determined by the method of Litchfield and Wilcoxon.

mice = experiment: acetic acid mouse writhing test (analgesic effect, s.c.); format: in vivo, male CD-1 mice; conditions: for analgesic activity: in words; for ED50: sc, mouse acetic acid writhing, s.c., dose reducing the number of writhes by 50%, IA @ dose = inactive at that dose, read-out: ED50; for duration of action: footnote ** to the ED50 value; for analgesic potency relative to TR-5222: more potent than TR-5222 by a factor
Method: (A) Analgesic effects upon mice (acetic acid writhing test).
TEST A. ACETIC ACID MOUSE WRITHING TEST
The analgesic effects of test compounds were determined in mice by use of the acetic acid writhing test described by B. J. R. Whittle, Brit. J. Pharmacol., 22:246 (1964). In this test at least three groups of five male CD-1 mice (18-22 g) each were given subcutaneous doses of the test drug dissolved in either distilled water or distilled water acidified with HCl depending on the solubility of the compound. In all cases, 0.4 milliliter of a 0.5% V/V acetic acid in distilled water solution was administered intraperitoneally 15 minutes post drug. The number of writhes in a 20 min. interval beginning 5 minutes after the acetic acid injection were determined and compared with the number of writhes in control groups which had received only acetic acid.
Percent inhibition of writhing was calculated as: [formula]
The ED50 dose, i.e., the dose required to reduce the number of writhes by 50%, was determined graphically from a plot of % inhibition as a probit versus log dose. Confidence limits of 95% were calculated on the basis of those results falling in the range 16-84% inhibition. See Litchfield, J. T. and Wilcoxon, F., J. Pharmacol. Exp. Ther., 96, 99-113, (1949).

[1] = conclusion from Tests A and B, Hydrochloride

SMILES | AD50 (rats) | ED50 (mice) | analgesic (agonist)/narcotic antagonist activity profile (rats; conclusion from Tests A and B) | other results
COc1ccc2c(c1)[C@]13CCN(CC4CC4)[C@H](C2)[C@@H]1[C@@H](C)CC(=O)C3 [TR-5119, 17-Cyclopropylmethyl-3-Methoxy-8β-Methylmorphinan-6-one] | 1.45 | 0.24 mg/kg | – | narcotic antagonist activity (rats): good activity; analgesic activity (mice): good activity
C[C@H]1CC(=O)C[C@]23CCN(CC4CCC4)[C@H](Cc4ccc(O)cc42)[C@H]13.Cl [TR-5130, 17-Cyclobutylmethyl-3-hydroxy-8β-methylmorphinan-6-one Hydrochloride] | 1.05 | 0.11 mg/kg | mixed agonist/antagonist activity | –
COc1ccc2c(c1)[C@]13CCN(CC4CCC4)[C@H](C2)[C@@H]1[C@@H](C)CC(=O)C3.Cl [TR-5132, 17-Cyclobutylmethyl-3-methoxy-8β-methylmorphinan-6-one Hydrochloride] | 6.4 | 0.54 mg/kg | – | narcotic antagonist activity (rats): good activity; analgesic activity (mice): good activity
COc1ccc2c(c1)[C@]13CCN(CC4CCC4)[C@H](C2)[C@@H]1CCC(=O)C3.Cl [TR-5148, 17-Cyclobutylmethyl-3-methoxymorphinan-6-one Hydrochloride, reference compound] | IA @ 10 | 0.22 mg/kg | – | narcotic antagonist activity (rats): does not exhibit activity as a narcotic antagonist; analgesic activity (mice): potent analgesic
COc1ccc2c(c1)[C@]13CCN(CC4CC4)[C@H](C2)[C@@H]1CCC(=O)C3 [TR-5152, 17-Cyclopropylmethyl-3-methoxymorphinan-6-one Hydrochloride, reference compound] | 5.4 | 0.24 mg/kg | – | –
Cl.O=C1CC[C@H]2[C@H]3Cc4ccc(O)cc4[C@@]2(CCN3CC2CCC2)C1 [TR-5153, 17-Cyclobutylmethyl-3-hydroxymorphinan-6-one Hydrochloride, reference compound] | IA @ 10 | 0.017 mg/kg | – | analgesic (agonist)/narcotic antagonist activity profile (rats; [1]): pure agonist; also recorded: pure analgesic
O=C1CC[C@H]2[C@H]3Cc4ccc(O)cc4[C@@]2(CCN3CC2CC2)C1 [TR-5160, 17-Cyclopropylmethyl-3-hydroxy morphinan-6-one, reference compound] | 2.3 | 1.02 mg/kg | – | –
COc1ccc2c(c1)[C@]13CCN(CC4CC4)[C@H](C2)[C@@H]1[C@@H](C)[C@H](C)C(=O)C3 [TR-5188, 17-Cyclopropylmethyl-7α,8β-dimethyl-3-methoxy-morphinan-6-oneHydrochloride] | 4.7 | 1.03 mg/kg | mixed analgesic/narcotic antagonist | –
C[C@@H]1[C@H]2[C@H]3Cc4ccc(O)cc4[C@@]2(CCN3CC2CCC2)CC(=O)[C@H]1C [TR-5195, 17-Cyclobutylmethyl-7α,8β-dimethyl-3-hydroxymorphinan-6-one] | 2.0 | 0.78 mg/kg | analgesic and narcotic antagonist activity | –
C[C@@H]1[C@H]2[C@H]3Cc4ccc(O)cc4[C@@]2(CCN3CC2CC2)CC(=O)[C@H]1C [TR-5196, 17-Cyclopropylmethyl-7α,8β-dimethyl-3-hydroxy-morphinan-6-one] | 0.12 | 7.8 mg/kg | – | –
CC[C@H]1CC(=O)C[C@]23CCN(CC4CCC4)[C@H](Cc4ccc(O)cc42)[C@H]13.Cl [TR-5200, 17-Cyclobutylmethyl-8β-ethyl-3-hydroxy-morphinan-6-one Hydrochloride] | 0.32 | 0.21 mg/kg | – | narcotic antagonist activity (rats): potent activity; analgesic activity (mice): potent activity
CCC[C@H]1CC(=O)C[C@]23CCN(CC4CCC4)[C@H](Cc4ccc(O)cc42)[C@H]13.Cl [TR-5204, 17-Cyclobutylmethyl-3-hydroxy-8β-n-propylmorphinan-6-one Hydrochloride] | 3.10 | 0.43 mg/kg | mixed analgesic/narcotic antagonist | narcotic antagonist potency relative to TR-5223 (rats; vs TR-5223): substantially more potent; analgesic potency relative to TR-5223 (mice; vs TR-5223): substantially more potent
COc1ccc2c(c1)[C@]13CCN(CC4CC4)[C@H](C2)[C@H]1C[C@@H](C)C(=O)C3 [TR-5205, 17-Cyclopropylmethyl-3-methoxy-7β-methyl-isomorphinan-6-one Hydrochloride] | 1.2 | > 15 mg/kg | – | –
O=C1CC[C@@H]2[C@H]3Cc4ccc(O)cc4[C@@]2(CCN3CC2CC2)C1 [TR-5222, 17-Cyclopropylmethyl-3-hydroxy-isomorphinan-6-one Hydrochloride, reference compound] | 0.78 | 3.11 mg/kg | mixed analgesic and narcotic antagonist activity | duration of action (mice): short acting
O=C1CC[C@@H]2[C@H]3Cc4ccc(O)cc4[C@@]2(CCN3CC2CCC2)C1 [TR-5223, 17-Cyclobutylmethyl-3-hydroxy-isomorphinan-6-one Hydrochloride, reference compound] | 5.0 | 0.94 mg/kg | – | analgesic (agonist)/narcotic antagonist activity profile (rats; [1]): mixed agonist/antagonist activity; also recorded: mixed analgesic/narcotic antagonist activity; mixed agonist/antagonist activity relative to TR-5130 (rats; vs TR-5130, conclusion from Tests A and B): substantially less than that of TR-5130; narcotic antagonist potency relative to TR-5200 (rats; vs TR-5200): significantly less potent; analgesic potency relative to TR-5200 (mice; vs TR-5200): significantly less potent
C[C@@H]1C[C@@H]2[C@H]3Cc4ccc(O)cc4[C@@]2(CCN3CC2CC2)CC1=O [TR-5225, 17-Cyclopropylmethyl-3-hydroxy-7β-methyl-isomorphinan-6-one Hydrobromide] | 0.48 | 0.72 mg/kg | – | narcotic antagonist potency relative to TR-5222 (rats): approximately 2; narcotic antagonist potency relative to TR-5205 (rats; vs TR-5205): approximately twice as potent; duration of action (mice): short acting; analgesic potency relative to TR-5222 (mice): greater than four; analgesic potency relative to TR-5205 (mice; vs TR-5205): much more potent
COc1ccc2c(c1)[C@]13CCN(CC4CC4)[C@H](C2)[C@H]1[C@H](C)[C@@H](C)C(=O)C3 [TR-5331, 17-Cyclopropylmethyl-7β,8α-dimethyl-3-methoxy-isomorphinan-6-one Hydrochloride] | > 10 | > 10 mg/kg | – | narcotic antagonist activity (rats): essentially inactive; analgesic activity (mice): essentially inactive
COc1ccc2c(c1)[C@]13CCN(CC4CCC4)[C@H](C2)[C@H]1[C@H](C)[C@@H](C)C(=O)C3 [TR-5332, 17-Cyclobutylmethyl-7β,8α-dimethyl-3-methoxy-isomorphinan-6-one Hydrochloride] | > 10 | > 10 mg/kg | – | –
CC[C@@H]1[C@H]2[C@H]3Cc4ccc(O)cc4[C@@]2(CCN3CC2CCC2)CC(=O)[C@H]1C [TR-5333, 17-Cyclobutylmethyl-8β-ethyl-3-hydroxy-7α-methyl-morphinan-6-one] | 1.95 | 3.3 mg/kg | both analgesic and narcotic antagonist activity | –
C[C@H]1[C@@H]2[C@H]3Cc4ccc(O)cc4[C@@]2(CCN3CC2CC2)CC(=O)[C@@H]1C [TR-5343, 17-Cyclopropylmethyl-7β,8α-dimethyl-3-hydroxy-isomorphinan-6-one Hydrobromide] | 0.43 | 1.89 mg/kg | mixed analgesic and narcotic antagonist activity | narcotic antagonist potency relative to TR-5222 (rats): approximately two; narcotic antagonist potency relative to TR-5196 (rats; vs geometric isomer TR-5196): somewhat less potent; analgesic potency relative to TR-5222 (mice): approximately two; analgesic potency relative to TR-5196 (mice; times as potent as geometric isomer TR-5196): approximately 4 times
